Measurements reported in US20130045991A1, “NEUROPROTECTIVE MODULATION OF NMDA RECEPTOR SUBTYPE ACTIVITIES” (THE UNIVERSITY OF BRITISH COLUMBIA, priority 2005, published 2013).

Assays:
[1] = target: T1, extrasynaptic NMDA receptors (Rattus norvegicus, UniProt Q00960); assay: NMDA-induced currents mediated by extrasynaptic NMDA receptors; type: cell-based; conditions: NMDA 200 μM after MK-801/bicuculline block of synaptic receptors; Ro 25-6981 0.5 μM
T1 construct: both NR2A- and NR2B-containing receptor subtypes are expressed in these neurons; endogenous in cells; host or cells: primary cortical neurons from E18 Sprague-Dawley rat embryos, 11-14 DIV
Experimental: (§1) In contrast to the predominant expression of NR2A-containing receptors at synapses, NR2B-containing receptors are thought to be the predominant NMDA receptor expressed at extrasynaptic sites in mature neurons (Massy et al., 2004; Tovar et al., 2002). […] The selective blockade of synaptic NMDA receptors was achieved by co-application of bicuculline (50 μM) and MK-801 (10 μM) for 10 min. Bicuculline enhances synaptic release of glutamate and thereby selectively activates synaptic NMDA receptors (Hardingham et al., 2002). MK-801, as an irreversible blocker of open NMDA receptor channels (Tovar et al., 2002; Huettner et al., 1988), can only block the bicuculline-activated synaptic NMDA receptors, and cannot block extrasynaptic channels that are not activated during bicuculline application. […] Little recovery was observed one hour following wash-out of the drugs. The currents gated through extrasynaptic NMDA receptors were then induced by application of NMDA (200 μM) via a fast perfusion system after washing out bicuculline and MK-801. […] On average, about 26.6±2.3% (n=5) of total currents gated by extrasynaptic NMDA receptors were mediated by NR2A-containing receptors (FIG. 4Ad).
(§2) Recording of NMDA-induced currents mediated by extrasynaptic NMDA Receptors: Extrasynaptic NMDA receptors were isolated by a specific blockade of synaptic NMDA receptors with NMDA receptor open channel blocker MK-801 as described above. The coverslip with the treated cortical neurons was transferred to a recording chamber for whole-cell patch-clamp recording. Extrasynaptic NMDA receptors in voltage-clamped cortical neurons were activated by NMDA (200 μM) in Mg2+-free ECS using a fast perfusion system (Warner Instruments).

cortical neurons = assay: Staurosporine (STS)-induced neuronal apoptosis; type: cell-based, rat; conditions: co-application of NVP-AAM077 0.4 μM
Source text: In alternative aspects of the invention, we have achieved specific activation of NR2A-containing receptors using two different strategies. First, we examined the effect of selective activation of extrasynaptic NR2A-containing receptor activation on neuronal appopotosis induced by staurosporine (STS), a potent apoptosis inducer (Budd et al., 2000). […] The NMDA-induced neuronal protection was indeed mediated by NR2A-containing receptors as it was prevented by co-application of NVP-AAM077 (p<0.001 compared with STS alone).
Dissociated cultures of cortical neurons were prepared from 18-day Sprague-Dawley rat embryos as described previously (Mielke et al., 2005). To obtain mixed cortical cultures enriched with neurons, uridine (10 μM) and 5-Fluor-2′-deoxyuridine (10 μM) were added to the culture medium at 3 DIV and maintained for 48 h, to inhibit non-neuronal cell proliferation, before the cultures were shifted back to the normal culture medium. Mature neurons (11-14 DIV) were used for experiments. To induce neuronal apoptosis, cortical cultures were stimulated with NMDA (50 μM) and glycine (10 μM) for 20 min, or STS (100 nM) for 1 h in Mg2+-free extracellular solution (ECS) containing (mM): 25 HEPES acid, 140 NaCl, 33 glucose, 5.4 KCl and 1.3 CaCl2, with pH 7.35 and osmolarity 320-330 mOsm. […]
To visualize injured neurons, Hoechst-33342 (10 μg/ml) was added to the culture medium 20 h after treatments and incubated for 45 min at 37 °C. Images were taken with a Leica DMIRE2 fluorescence microscope. Quantitative assessment of neuronal apoptosis was performed 20 h following treatments using a Cell Death Detection ELISAPLUS Kit (Roche Applied Science). Absorbance readings were determined using a spectrophotometric microplate reader. […] Data are expressed as the difference in apoptosis relative to control and are expressed as a percentage.

Akt (phospho-Ser473) = assay: Western blotting of Akt phosphorylation after NMDA treatment; type: cell-based, rat; conditions: NMDA-treated neurons, western blot
Experimental: Twelve hours after treatments, proteins were extracted from neurons using a lysis buffer composed of 150 mM NaCl, 50 mM Tris (pH 7.4), 0.1% SDS, 1% NP-40, 0.5% sodium deoxycholate, 1 mM EDTA, 1 mM Na3VO4, 10 μg/ml each of leupeptin and aprotinin, and 1 mM phenylmethylsulfonyl fluoride. To determine the state of Akt phosphorylation, the samples were separated on 10% SDS-PAGE gels, transferred to PVDF membrane and immunoblotted with anti-phosphoSer473-Akt antibody (Cell Signaling). The same membrane was stripped and reprobed with anti-Akt antibody (Cell Signaling). To determine the activity of caspase-3, the samples were separated on 15% SDS-PAGE gels and transferred to PVDF membranes, which were then sequentially probed with antibodies against cleaved caspase-3 (Asp175, Cell Signaling) and β-tubulin (Sigma).

[2] = target: T2, extrasynaptic NMDA receptors (Rattus norvegicus, UniProt Q00959); assay: NMDA-induced currents mediated by extrasynaptic NMDA receptors; type: cell-based; conditions: in presence of Ro 25-6981; NVP-AAM077 0.4 μM
T2 construct: both NR2A- and NR2B-containing receptor subtypes are expressed in these neurons; endogenous in cells; host or cells: primary cortical neurons from E18 Sprague-Dawley rat embryos, 11-14 DIV
Experimental: as §1, §2

[3] = system: extrasynaptic NMDA receptors; assay: as above; type: cell-based, rat; conditions: NMDA 200 μM; n=5
Experimental: as §1, §2

T1 sequence (Q00960 27-1482, other chains not shown): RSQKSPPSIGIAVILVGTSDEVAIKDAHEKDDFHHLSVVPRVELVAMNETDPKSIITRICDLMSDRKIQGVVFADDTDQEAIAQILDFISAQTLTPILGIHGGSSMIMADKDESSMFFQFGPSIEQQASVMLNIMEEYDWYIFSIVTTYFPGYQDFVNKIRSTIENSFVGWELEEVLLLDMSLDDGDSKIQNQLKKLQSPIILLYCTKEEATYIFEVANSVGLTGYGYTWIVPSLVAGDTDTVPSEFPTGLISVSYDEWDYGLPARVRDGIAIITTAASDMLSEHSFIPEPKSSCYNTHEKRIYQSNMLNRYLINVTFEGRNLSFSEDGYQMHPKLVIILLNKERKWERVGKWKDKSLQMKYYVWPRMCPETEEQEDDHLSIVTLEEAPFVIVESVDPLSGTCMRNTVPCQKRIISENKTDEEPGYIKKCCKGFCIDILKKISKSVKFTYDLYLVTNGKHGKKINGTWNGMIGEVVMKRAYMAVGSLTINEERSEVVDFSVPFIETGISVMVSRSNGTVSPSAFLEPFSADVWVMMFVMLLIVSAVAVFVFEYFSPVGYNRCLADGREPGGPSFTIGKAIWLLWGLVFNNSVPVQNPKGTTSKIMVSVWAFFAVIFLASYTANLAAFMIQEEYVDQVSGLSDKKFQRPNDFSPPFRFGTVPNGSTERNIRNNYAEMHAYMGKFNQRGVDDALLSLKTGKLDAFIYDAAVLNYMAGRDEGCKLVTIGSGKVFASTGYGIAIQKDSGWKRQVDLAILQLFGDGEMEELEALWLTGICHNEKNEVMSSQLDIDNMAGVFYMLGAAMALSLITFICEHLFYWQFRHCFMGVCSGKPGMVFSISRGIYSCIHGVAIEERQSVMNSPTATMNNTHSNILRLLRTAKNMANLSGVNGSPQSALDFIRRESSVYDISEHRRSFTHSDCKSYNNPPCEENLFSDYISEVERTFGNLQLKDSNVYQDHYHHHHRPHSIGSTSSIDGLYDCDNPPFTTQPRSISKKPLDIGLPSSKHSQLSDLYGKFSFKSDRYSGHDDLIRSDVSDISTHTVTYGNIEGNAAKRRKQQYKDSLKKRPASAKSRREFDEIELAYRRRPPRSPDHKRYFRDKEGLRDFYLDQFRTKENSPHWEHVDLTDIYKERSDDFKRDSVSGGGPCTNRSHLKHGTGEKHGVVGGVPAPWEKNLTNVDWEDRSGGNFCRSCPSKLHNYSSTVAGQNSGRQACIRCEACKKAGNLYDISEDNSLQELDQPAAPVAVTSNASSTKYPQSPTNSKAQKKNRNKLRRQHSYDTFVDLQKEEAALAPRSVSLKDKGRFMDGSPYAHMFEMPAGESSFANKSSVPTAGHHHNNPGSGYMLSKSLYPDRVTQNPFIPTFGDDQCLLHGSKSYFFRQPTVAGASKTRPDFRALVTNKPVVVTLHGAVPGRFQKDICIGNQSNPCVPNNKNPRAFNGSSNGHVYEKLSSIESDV
T2 sequence (Q00959 23-1464, other chains not shown): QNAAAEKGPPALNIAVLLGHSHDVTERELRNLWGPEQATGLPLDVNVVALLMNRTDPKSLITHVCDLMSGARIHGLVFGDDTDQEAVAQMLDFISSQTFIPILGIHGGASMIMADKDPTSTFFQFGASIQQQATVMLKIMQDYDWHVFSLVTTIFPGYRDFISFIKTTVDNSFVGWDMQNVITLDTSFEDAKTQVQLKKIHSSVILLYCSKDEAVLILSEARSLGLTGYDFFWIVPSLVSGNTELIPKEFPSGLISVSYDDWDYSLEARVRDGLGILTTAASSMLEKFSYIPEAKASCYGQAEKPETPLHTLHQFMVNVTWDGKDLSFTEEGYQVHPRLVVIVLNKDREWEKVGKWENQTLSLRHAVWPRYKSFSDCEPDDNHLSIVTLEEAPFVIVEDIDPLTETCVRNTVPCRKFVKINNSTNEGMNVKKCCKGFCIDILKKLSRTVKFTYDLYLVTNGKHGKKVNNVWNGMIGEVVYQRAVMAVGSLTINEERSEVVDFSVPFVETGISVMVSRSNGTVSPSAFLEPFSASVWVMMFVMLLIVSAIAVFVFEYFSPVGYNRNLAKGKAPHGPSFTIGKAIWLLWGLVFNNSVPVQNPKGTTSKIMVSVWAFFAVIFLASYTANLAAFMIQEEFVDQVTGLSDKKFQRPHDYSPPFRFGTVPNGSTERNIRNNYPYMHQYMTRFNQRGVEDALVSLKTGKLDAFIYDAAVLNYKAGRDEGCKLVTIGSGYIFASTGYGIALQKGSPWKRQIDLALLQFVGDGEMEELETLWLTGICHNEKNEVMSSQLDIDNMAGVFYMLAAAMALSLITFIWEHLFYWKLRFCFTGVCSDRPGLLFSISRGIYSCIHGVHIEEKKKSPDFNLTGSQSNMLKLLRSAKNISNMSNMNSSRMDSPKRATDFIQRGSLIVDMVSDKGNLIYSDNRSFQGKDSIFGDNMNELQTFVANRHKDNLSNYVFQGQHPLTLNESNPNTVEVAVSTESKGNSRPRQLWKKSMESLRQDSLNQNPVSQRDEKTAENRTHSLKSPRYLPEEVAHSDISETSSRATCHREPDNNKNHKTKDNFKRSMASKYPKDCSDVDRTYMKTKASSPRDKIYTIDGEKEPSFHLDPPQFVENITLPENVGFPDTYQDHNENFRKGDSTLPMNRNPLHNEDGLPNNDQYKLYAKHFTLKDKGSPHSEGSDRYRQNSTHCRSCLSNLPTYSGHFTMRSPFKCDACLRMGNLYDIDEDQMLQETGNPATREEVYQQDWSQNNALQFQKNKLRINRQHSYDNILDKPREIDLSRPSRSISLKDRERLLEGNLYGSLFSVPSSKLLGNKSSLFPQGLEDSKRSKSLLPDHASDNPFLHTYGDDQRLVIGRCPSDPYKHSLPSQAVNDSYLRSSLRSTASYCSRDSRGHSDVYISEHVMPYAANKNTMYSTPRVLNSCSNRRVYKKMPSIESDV

Row | SMILES | effect on extrasynaptic NMDA receptor-mediated currents [1] | effect on NMDA-induced protection against STS (cortical neurons) | effect on NMDA-induced reduction in Akt kinase activity (S473 dephosphorylation) (Akt (phospho-Ser473)) | effect on residual, NR2B antagonist-resistant extrasynaptic current [2] | share of total extrasynaptic NMDA receptor currents mediated by NR2A-containing receptors (Ro 25-6981-resistant, NVP-AAM077-blocked) [3]
1 | C[C@@H](CN1CCC(Cc2ccccc2)CC1)[C@@H](O)c1ccc(O)cc1 (relative stereo) [Ro 25-6981, [R-(R*,S*)]-α-(4-Hydroxyphenyl)-β-methyl-4-(phenylmethyl)-1-piperidinepropanol] | largely reduced | – | – | – | –
2 | C[C@H](NC(c1cccc2[nH]c(=O)c(=O)[nH]c12)P(=O)(O)O)c1ccc(Br)cc1 (some centres unmarked) [NVP-AAM077] | – | prevented | slightly increased the NMDA-induced reduction in Akt activity | virtually completely blocked | about 26.6±2.3%
